The record followed here is article PMC5218480 (PLoS ONE, 2017).

The assay concerns MV-4-11 cells. The experiment in a line: Gene expression microarray analysis (Affymetrix PrimeView) and GSEA. It is filed as cell-based, human. Set-up: RFU PODN (11730768_x_at) / Fold change /veh PODN (11730768_x_at) / RFU LINC00158 (11744669_a_at) / Fold change /veh LINC00158 (11744669_a_at) / RFU DUSP10 (11751237_a_at) / Fold change /veh DUSP10 (11751237_a_at) / RFU ID3 (11757404_x_at) / Fold change /veh ID3 (11757404_x_at) / RFU PLEKHG5 (11737974_s_at) / Fold change /veh PLEKHG5 (11737974_s_at) / RFU LRRC4B (11730491_at) / Fold change /veh LRRC4B (11730491_at) / RFU GIMAP4 (11747438_a_at) / Fold change /veh GIMAP4 (11747438_a_at) / RFU KRT8 (11758183_x_at) / Fold change /veh KRT8 (11758183_x_at) / RFU CNN1 (11734310_a_at) / Fold change /veh CNN1 (11734310_a_at) / RFU VPS37D (11726825_at) / Fold change /veh VPS37D (11726825_at) / RFU C10orf10 (11716522_x_at) / Fold change /veh C10orf10 (11716522_x_at) / RFU KIR2DL2 /// KIR2DL4 /// KIR2DL5A /// KIR2DL5B /// KIR2DS1 /// KIR2DS2 /// KIR2DS3 /// KIR2DS4 /// KIR3DL3 /// KIR3DL3 /// KIR3DS1 (11738374_at) / Fold change /veh KIR2DL2 /// KIR2DL4 /// KIR2DL5A /// KIR2DL5B /// KIR2DS1 /// KIR2DS2 /// KIR2DS3 /// KIR2DS4 /// KIR3DL3 /// KIR3DL3 /// KIR3DS1 (11738374_at) / RFU C1QL1 (11718748_at) / Fold change /veh C1QL1 (11718748_at) / RFU TMPRSS4 (11747572_a_at) / Fold change /veh TMPRSS4 (11747572_a_at) / RFU HAMP (11756126_x_at) / Fold change /veh HAMP (11756126_x_at) / RFU RNFT2 (11725882_a_at) / Fold change /veh RNFT2 (11725882_a_at) / RFU NR4A2 (11747474_a_at) / Fold change /veh NR4A2 (11747474_a_at) / RFU ABCC12 (11746883_a_at) / Fold change /veh ABCC12 (11746883_a_at) / RFU TMEM136 (11760407_x_at) / Fold change /veh TMEM136 (11760407_x_at) / RFU CLDN22 /// WWC2 (11732394_at) / Fold change /veh CLDN22 /// WWC2 (11732394_at) / RFU HLA-DPB1 (11760878_x_at) / Fold change /veh HLA-DPB1 (11760878_x_at) / RFU SPINT1 (11716480_a_at) / Fold change /veh SPINT1 (11716480_a_at) / RFU GAP43 (11754022_s_at) / Fold change /veh GAP43 (11754022_s_at) / RFU A4GNT (11735810_at) / Fold change /veh A4GNT (11735810_at) / RFU PRB3 (11715151_x_at) / Fold change /veh PRB3 (11715151_x_at) / RFU TUBB4B (11761932_at) / Fold change /veh TUBB4B (11761932_at) / RFU CAPN14 (11732068_a_at) / Fold change /veh CAPN14 (11732068_a_at) / RFU TMCC2 (11721928_a_at) / Fold change /veh TMCC2 (11721928_a_at) / RFU IRGQ (11745062_a_at) / Fold change /veh IRGQ (11745062_a_at) / RFU FAM174B (11720279_a_at) / Fold change /veh FAM174B (11720279_a_at) / RFU TMPRSS4 (11748680_a_at) / Fold change /veh TMPRSS4 (11748680_a_at) / RFU FAM212B (11763350_a_at) / Fold change /veh FAM212B (11763350_a_at) / RFU PLEKHG5 (11743358_a_at) / Fold change /veh PLEKHG5 (11743358_a_at) / RFU ZSCAN30 (11745921_a_at) / Fold change /veh ZSCAN30 (11745921_a_at) / RFU CMKLR1 (11741424_a_at) / Fold change /veh CMKLR1 (11741424_a_at) / RFU LOC101060620 /// MAPK8IP1 (11723275_at) / Fold change /veh LOC101060620 /// MAPK8IP1 (11723275_at) / RFU SPTSSB (11747773_x_at) / Fold change /veh SPTSSB (11747773_x_at) / RFU PRSS12 (11739890_at) / Fold change /veh PRSS12 (11739890_at) / RFU BIN1 (11741810_x_at) / Fold change /veh BIN1 (11741810_x_at) / RFU WNT11 (11732464_a_at) / Fold change /veh WNT11 (11732464_a_at) / RFU C10orf10 (11716521_a_at) / Fold change /veh C10orf10 (11716521_a_at) / RFU C5orf56 (11738089_at) / Fold change /veh C5orf56 (11738089_at) / RFU CYB561 (11721691_x_at) / Fold change /veh CYB561 (11721691_x_at) / RFU ANKRD19P (11752326_a_at) / Fold change /veh ANKRD19P (11752326_a_at) / RFU OR2T12 /// OR2T33 /// OR2T8 (11738714_s_at) / Fold change /veh OR2T12 /// OR2T33 /// OR2T8 (11738714_s_at) / RFU VCAN (11748164_a_at) / Fold change /veh VCAN (11748164_a_at) / RFU JSRP1 (11732532_at) / Fold change /veh JSRP1 (11732532_at) / RFU KRTAP10-11 (11738290_x_at) / Fold change /veh KRTAP10-11 (11738290_x_at) / RFU MYO3A (11730013_a_at) / Fold change /veh MYO3A (11730013_a_at) / RFU EBF3 (11725865_a_at) / Fold change /veh EBF3 (11725865_a_at) / RFU CAMK2N1 (11719241_x_at) / Fold change /veh CAMK2N1 (11719241_x_at) / RFU C5orf56 (11738088_a_at) / Fold change /veh C5orf56 (11738088_a_at) / RFU OLFML3 (11715873_a_at) / Fold change /veh OLFML3 (11715873_a_at) / RFU LOC100653217 /// NTM (11731650_a_at) / Fold change /veh LOC100653217 /// NTM (11731650_a_at) / RFU MAPK11 (11762145_a_at) / Fold change /veh MAPK11 (11762145_a_at) / RFU FIZ1 (11724087_x_at) / Fold change /veh FIZ1 (11724087_x_at) / RFU OASL (11726364_x_at) / Fold change /veh OASL (11726364_x_at) / RFU SOX15 (11748057_x_at) / Fold change /veh SOX15 (11748057_x_at) / RFU CD79A (11719716_a_at) / Fold change /veh CD79A (11719716_a_at) / RFU HIST1H1D (11736915_at) / Fold change /veh HIST1H1D (11736915_at) / RFU CASKIN2 (11723855_a_at) / Fold change /veh CASKIN2 (11723855_a_at) / RFU LOC730098 (11760151_x_at) / Fold change /veh LOC730098 (11760151_x_at) / RFU OR4N2 (11742367_at) / Fold change /veh OR4N2 (11742367_at) / RFU PRRT2 (11749266_a_at) / Fold change /veh PRRT2 (11749266_a_at) / RFU SNX32 (11753110_a_at) / Fold change /veh SNX32 (11753110_a_at) / RFU CDHR5 (11726645_a_at) / Fold change /veh CDHR5 (11726645_a_at) / RFU RCAN1 (11760418_a_at) / Fold change /veh RCAN1 (11760418_a_at) / RFU FAM167A (11723789_a_at) / Fold change /veh FAM167A (11723789_a_at) / RFU FAM26E (11764081_at) / Fold change /veh FAM26E (11764081_at) / RFU ISYNA1 (11749810_s_at) / Fold change /veh ISYNA1 (11749810_s_at) / RFU ACY1 (11761880_at) / Fold change /veh ACY1 (11761880_at) / RFU 11764098_at / Fold change /veh 11764098_at / RFU SAMD14 (11745864_x_at) / Fold change /veh SAMD14 (11745864_x_at) / RFU NPB (11741838_a_at) / Fold change /veh NPB (11741838_a_at) / RFU TMPRSS6 (11731388_a_at) / Fold change /veh TMPRSS6 (11731388_a_at) / RFU KRTAP10-2 (11738614_at) / Fold change /veh KRTAP10-2 (11738614_at) / RFU ARHGAP8 /// PRR5-ARHGAP8 (11727945_x_at) / Fold change /veh ARHGAP8 /// PRR5-ARHGAP8 (11727945_x_at) / RFU KRTAP5-7 /// NADSYN1 (11734609_at) / Fold change /veh KRTAP5-7 /// NADSYN1 (11734609_at) / RFU RASL12 (11751679_a_at) / Fold change /veh RASL12 (11751679_a_at) / RFU CDKN2B (11736163_a_at) / Fold change /veh CDKN2B (11736163_a_at) / RFU PRF1 (11729649_at) / Fold change /veh PRF1 (11729649_at) / RFU, ZNF638 /// ZNF638-IT1 / Fold change vs veh, ZNF638 /// ZNF638-IT1 / RFU, PANK3 / Fold change vs veh, PANK3 / RFU, SH3YL1 / Fold change vs veh, SH3YL1 / RFU, ZEB2 / Fold change vs veh, ZEB2 / RFU, NRIP1 / Fold change vs veh, NRIP1 / RFU, PTTG1IP / Fold change vs veh, PTTG1IP / RFU, CAPN2 / Fold change vs veh, CAPN2 / RFU, MED14 / Fold change vs veh, MED14 / RFU, SNORA58 / Fold change vs veh, SNORA58 / RFU, C1orf63 / Fold change vs veh, C1orf63 / RFU, LRRFIP1 / Fold change vs veh, LRRFIP1 / RFU, NDUFAF7 / Fold change vs veh, NDUFAF7 / RFU, SLC12A2 / Fold change vs veh, SLC12A2 / RFU, IBTK / Fold change vs veh, IBTK / RFU, ESF1 / Fold change vs veh, ESF1 / Fold change vs veh, TMEM50B / RFU, TAOK1 / Fold change vs veh, TAOK1 / RFU, ACBD3 / Fold change vs veh, ACBD3 / RFU, TMA16 / Fold change vs veh, TMA16 / RFU, RWDD3 / Fold change vs veh, RWDD3 / RFU, BCAT1 / Fold change vs veh, BCAT1 / RFU, EDEM3 / Fold change vs veh, EDEM3 / RFU, TMEM33 / Fold change vs veh, TMEM33 / RFU, WDR75 / Fold change vs veh, WDR75 / RFU, AHCTF1 / Fold change vs veh, AHCTF1 / RFU, TFRC / Fold change vs veh, TFRC / RFU, ZDHHC17 / Fold change vs veh, ZDHHC17 / RFU, NOM1 / Fold change vs veh, NOM1 / RFU, ARL8B / Fold change vs veh, ARL8B / RFU, ZBTB11 / Fold change vs veh, ZBTB11 / RFU, TAMM41 / Fold change vs veh, TAMM41 / RFU, KIAA1704 /// LOC100996395 / Fold change vs veh, KIAA1704 /// LOC100996395 / RFU, ING1 / Fold change vs veh, ING1 / RFU, TRMT61B / Fold change vs veh, TRMT61B / RFU, FUBP3 / Fold change vs veh, FUBP3 / RFU, TP53 / Fold change vs veh, TP53 / RFU, TNKS2 / Fold change vs veh, TNKS2 / RFU, ZFP14 / Fold change vs veh, ZFP14 / RFU, ACTR2 / Fold change vs veh, ACTR2 / RFU, PPP3R1 / Fold change vs veh, PPP3R1 / RFU, PIK3R1 / Fold change vs veh, PIK3R1 / RFU, HNRNPA1 / Fold change vs veh, HNRNPA1 / RFU, RNF170 / Fold change vs veh, RNF170 / RFU, ZNF28 / Fold change vs veh, ZNF28 / RFU, RNGTT / Fold change vs veh, RNGTT / RFU, OGT / Fold change vs veh, OGT / RFU, BRD1 / Fold change vs veh, BRD1 / RFU, MARS / Fold change vs veh, MARS / RFU, ZNF655 / Fold change vs veh, ZNF655 / RFU, FAHD1 / Fold change vs veh, FAHD1 / RFU, BDP1 / Fold change vs veh, BDP1 / RFU, LRRCC1 / Fold change vs veh, LRRCC1 / RFU, ARID1A / Fold change vs veh, ARID1A / RFU, ZNF146 / Fold change vs veh, ZNF146 / RFU, ZNF330 / Fold change vs veh, ZNF330 / RFU, GPN3 / Fold change vs veh, GPN3 / RFU, C9orf123 / Fold change vs veh, C9orf123 / RFU, N4BP2L2 / Fold change vs veh, N4BP2L2 / RFU, ARFIP1 / Fold change vs veh, ARFIP1 / RFU, FAM179B / Fold change vs veh, FAM179B / RFU, BCL10 / Fold change vs veh, BCL10 / RFU, UHRF1BP1L / Fold change vs veh, UHRF1BP1L / RFU, BET1 / Fold change vs veh, BET1 / RFU, CNOT2 / Fold change vs veh, CNOT2 / RFU, ZNF268 / Fold change vs veh, ZNF268 / Fold change vs veh, ZNF507 / RFU, DGCR2 / Fold change vs veh, DGCR2 / RFU, WDSUB1 / Fold change vs veh, WDSUB1 / Fold change vs veh, HSP90B1 /// MIR3652 / RFU, ADSS / Fold change vs veh, ADSS / RFU, GK / Fold change vs veh, GK / RFU, ZNF148 / Fold change vs veh, ZNF148 / RFU, TAF9 / Fold change vs veh, TAF9 / RFU, SLC1A5 / Fold change vs veh, SLC1A5 / RFU, SLMO2 / Fold change vs veh, SLMO2 / RFU, ABCC4 / Fold change vs veh, ABCC4 / RFU, LOC101060439 /// RAP1B / Fold change vs veh, LOC101060439 /// RAP1B / RFU, RFX7 / Fold change vs veh, RFX7 / RFU, GTPBP10 / Fold change vs veh, GTPBP10 / RFU, CNEP1R1 / Fold change vs veh, CNEP1R1 / RFU, BIVM-ERCC5 /// ERCC5 / Fold change vs veh, BIVM-ERCC5 /// ERCC5 / RFU, ILF3 / Fold change vs veh, ILF3 / RFU 11762660_at / Fold change /veh 11762660_at / RFU VCAN (11757783_s_at) / Fold change /veh VCAN (11757783_s_at) / RFU DDX43 (11728927_at) / Fold change /veh DDX43 (11728927_at) / RFU KRT8 (11758188_x_at) / Fold change /veh KRT8 (11758188_x_at) / RFU NKD1 (11759106_at) / Fold change /veh NKD1 (11759106_at) / RFU SRD5A1 (11742802_a_at) / Fold change /veh SRD5A1 (11742802_a_at) / RFU TPSAB1 /// TPSB2 (11721975_s_at) / Fold change /veh TPSAB1 /// TPSB2 (11721975_s_at) / RFU GSTM3 (11746129_a_at) / Fold change /veh GSTM3 (11746129_a_at) / RFU IL23R (11737362_x_at) / Fold change /veh IL23R (11737362_x_at) / RFU TMEM51 (11727254_a_at) / Fold change /veh TMEM51 (11727254_a_at) / RFU PIWIL2 (11732686_x_at) / Fold change /veh PIWIL2 (11732686_x_at) / RFU ORM1 (11744905_x_at) / Fold change /veh ORM1 (11744905_x_at) / RFU CCDC152 (11743942_at) / Fold change /veh CCDC152 (11743942_at) / RFU ECM1 (11717891_a_at) / Fold change /veh ECM1 (11717891_a_at) / RFU IL23R (11748794_a_at) / Fold change /veh IL23R (11748794_a_at) / RFU TNFAIP8L3 (11732012_x_at) / Fold change /veh TNFAIP8L3 (11732012_x_at) / RFU MBOAT4 (11741988_at) / Fold change /veh MBOAT4 (11741988_at) / RFU 11764193_at / Fold change /veh 11764193_at / RFU TMEM53 (11763286_at) / Fold change /veh TMEM53 (11763286_at) / RFU MAGEB2 (11727129_at) / Fold change /veh MAGEB2 (11727129_at) / RFU TMEM200A (11744735_a_at) / Fold change /veh TMEM200A (11744735_a_at) / RFU CCDC152 (11751479_a_at) / Fold change /veh CCDC152 (11751479_a_at) / RFU FAM211A (11726209_a_at) / Fold change /veh FAM211A (11726209_a_at) / RFU RGS16 (11746705_a_at) / Fold change /veh RGS16 (11746705_a_at) / RFU VCAN (11755009_s_at) / Fold change /veh VCAN (11755009_s_at) / RFU RHOB (11743442_s_at) / Fold change /veh RHOB (11743442_s_at) / RFU RGS16 (11720943_a_at) / Fold change /veh RGS16 (11720943_a_at) / RFU RGS16 (11720944_at) / Fold change /veh RGS16 (11720944_at) / RFU, VPS4B / Fold change vs veh, VPS4B / RFU, CREB1 / Fold change vs veh, CREB1 / RFU, DNAJC13 / Fold change vs veh, DNAJC13 / RFU, GNAQ / Fold change vs veh, GNAQ / RFU, CDK5R1 / Fold change vs veh, CDK5R1 / RFU, ZRANB3 / Fold change vs veh, ZRANB3 / RFU, CUL4A / Fold change vs veh, CUL4A / RFU, CCNY / Fold change vs veh, CCNY / RFU, UFL1 / Fold change vs veh, UFL1 / RFU, COG3 / Fold change vs veh, COG3 / RFU, DIAPH2 / Fold change vs veh, DIAPH2 / RFU, SKA2 / Fold change vs veh, SKA2 / RFU, AFF3 / Fold change vs veh, AFF3 / RFU, LMF1 / Fold change vs veh, LMF1 / RFU, IPO11 / Fold change vs veh, IPO11 / RFU, DFFB / Fold change vs veh, DFFB / RFU, FOXP1 / Fold change vs veh, FOXP1 / RFU, CARD8 / Fold change vs veh, CARD8 / RFU, STRN3 / Fold change vs veh, STRN3 / RFU, ADK / Fold change vs veh, ADK / RFU, RASSF2 / Fold change vs veh, RASSF2 / RFU, WIPF1 / Fold change vs veh, WIPF1 / RFU, LARP1B / Fold change vs veh, LARP1B / RFU, RASA1 / Fold change vs veh, RASA1 / RFU, RB1 / Fold change vs veh, RB1 / RFU, PPFIA1 / Fold change vs veh, PPFIA1 / RFU, MAT2A / Fold change vs veh, MAT2A / RFU, CCT5 / Fold change vs veh, CCT5 / RFU, WDR92 / Fold change vs veh, WDR92 / RFU, CUX1 / Fold change vs veh, CUX1 / RFU, TTC7A / Fold change vs veh, TTC7A / RFU, TMEM135 / Fold change vs veh, TMEM135 / RFU, DEPTOR / Fold change vs veh, DEPTOR / RFU, CPM / Fold change vs veh, CPM / RFU, DNAJB6 / Fold change vs veh, DNAJB6 / RFU, CACNA2D3 / Fold change vs veh, CACNA2D3 / RFU, DTX4 / Fold change vs veh, DTX4 / RFU, TFCP2 / Fold change vs veh, TFCP2 / RFU, GMCL1 /// GMCL1P1 / Fold change vs veh, GMCL1 /// GMCL1P1 / RFU, AEBP2 / Fold change vs veh, AEBP2 / RFU, SNHG1 /// SNORD22 /// SNORD25 /// SNORD26 /// SNORD27 /// SNORD28 /// SNORD29 /// SNORD31 / Fold change vs veh, SNHG1 /// SNORD22 /// SNORD25 /// SNORD26 /// SNORD27 /// SNORD28 /// SNORD29 /// SNORD31 / Fold change (Aza/veh), C12orf56 (ProbeSet 11735607_a_at) / Fold change (ACY-1035/veh), C12orf56 (ProbeSet 11735607_a_at) / Fold change (Aza/veh), FGFR1OP (ProbeSet 11751329_s_at) / Fold change (ACY-1035/veh), FGFR1OP (ProbeSet 11751329_s_at) / Fold change (Aza/veh), VPS36 (ProbeSet 11739960_a_at) / Fold change (ACY-1035/veh), VPS36 (ProbeSet 11739960_a_at) / RFU SYPL1 (11715823_x_at) / Fold change /veh SYPL1 (11715823_x_at) / RFU IGFBP7 (11715501_s_at) / Fold change /veh IGFBP7 (11715501_s_at) / RFU REEP3 (11722064_at) / Fold change /veh REEP3 (11722064_at) / RFU IGLL1 (11728026_x_at) / Fold change /veh IGLL1 (11728026_x_at): dose or concentration left out as unconfirmed. As to conditions: ProbeSet 11723930_at; LIST D.

For the compound `Nc1ccc(-c2cccs2)cc1NC(=O)c1ccc2c(c1)cc(C1CC1)n2CCN1CCOCC1` [ACY-1035], the “Fold change vs veh, CCT5” value came out at 0.85.
